# In patent publication US20250099430A1, “PREVENTION OR TREATMENT OF SLEEP DISORDERS USING DEXMEDETOMIDINE FORMULATION” (BioXcel Therapeutics, Inc., priority 2014, published 2025):
# Values joined by “and” are separate entries in the source; they are usually repeats but may differ in a detail not shown here. Equal values may be shown once. “Also recorded” adds a separate entry of the source.
# System: Wistar rats
# Assay: Sleep promoting properties in Wistar rats, video monitoring of home cage activity (total sleep time, latency to sleep, number of sleep episodes)
# Type: in vivo
# Details: for Total Sleep time: 180 min recording
# Protocol: Sublingual dexmedetomidine formulation of present invention was tested in rats for its ability to increase the amount of sleep or decrease sleep interruption or both without undesired effects. Test animals' activity was continuously monitored by using a video camera overhead and data analysed for latency of sleep, total sleep time and number of sleep episodes by using the NoldusEthovision-XT 11.
# Male Wistar rats were approximately of the weight 180 g-220 g and age of about 5-7 weeks old. Animals were numbered and kept in acclimatization for a period of 5-7 days before the initiation of the experiment. All the experiments on animals were conducted in accordance with the guidelines of the Committee for the Purpose of Control and Supervision of Experiments on Animals (CPCSEA), Goveemment of India the Association for Assessment and Accreditation of Laboratory Animal Care intemational (AAALAC).
# Recording Environment: Animals were housed group wise (three animals per cage) within a microisolator cage modified with an inserted polycarbonate filter-top riser to allow more vertical headroom. Animals were maintained on the normal rodent chow ad libitum and given free access to fresh autoclaved potable drinking water. Animals were kept in a controlled environmental condition with 22±3° C. temperature, 50±20% humidity, a light dark cycle of 12 hours each and 15-20 fresh air changes per hour.
# Animal Groups: Wistar rats were randomly divided into different groups, each containing 6 animals. The study groups were divided as normal control group, vehicle control group, test compound groups and reference compound group.
# Animals were weight once at randomization and each day thereafter. The animals were studied from day 1 till day 9. […] On day 3, animals were dosed with test compounds and respiratory parameters such as tidal volume, frequency of respiration: heart rate and blood pressure were recorded. On day 5 and day 6, animals were trained on the rotarod apparatus (4-40 rpm for 300 s). On day 7, animals were administered with test compounds and motor coordination was tested on rotarod at 3, 10, 17, 24 and 30 minutes post administration to establish a temporal scale of loss of motor activity and drowsiness. On day 9, animals were dosed with test compounds and blood was collected at 15, 30, 60 and 120 min post sublingual dosing to estimate plasma drug concentration of dexmedetomidine. All the animals were euthanized by CO2 inhalation on day 9. The animal in the satellite groups was dosed with test compounds and blood was collected on day 0 at 15, 30, 60, and 120 min post sublingual dosing to estimate plasma drug concentration of dexmedetomidine after first drug exposure.
# The normal control group received no treatment: vehicle control group received 0.9% saline water; the test group received compound (dexmedetomidine), administered sublingually in different doses (dose 1-5.14 μg/kg of body weight, dose 2-10 μg/kg of body weight, dose 3-20 μg/kg of body weight, dose 4-30 μg/kg of body weight and dose 5-40 μg/kg of body weight) and also administered parenterally (dose 6-1.5 μg kg of body weight); and the reference compound (Zolpidem) was administered orally in dose of 30 mg/kg of body weight. The treatment was given such that no rat received the same treatment twice.
# Total sleep time, latency to sleep and number of sleep episodes were measured: After administration of each dose to each group of animal, the latency to sleep, total sleep time and sleep episodes was recorded.
# One way ANOVA test was applied for the comparison of the data from different groups for total sleep time, latency to sleep and number of sleep episodes.
# [1] = Table 2, Dose 1 (5.14 μg/kg, SL)
# [2] = Table 2, Dose 6 (1.5 μg/kg, I.V.)
# [3] = group mean, Dose 1 (5.14 μg/kg Dexmedetomidine SL)
# [4] = group mean, Dose 2 (10 μg/kg Dexmedetomidine SL)
# [5] = group mean, Dose 3 (20 μg/kg Dexmedetomidine SL)
# [6] = group mean, Dose 4 (30 μg/kg Dexmedetomidine SL)
# [7] = group mean, Dose 5 (40 μg/kg Dexmedetomidine SL)
# [8] = group mean, Dose 6 (1.5 μg/kg Dexmedetomidine I.V.)
# [9] = individual animals, Dose 1 (5.14 μg/kg Dexmedetomidine SL)
# [10] = individual animals, Dose 2 (10 μg/kg Dexmedetomidine SL)
# [11] = individual animals, Dose 3 (20 μg/kg Dexmedetomidine SL)
# [12] = individual animals, Dose 4 (30 μg/kg Dexmedetomidine SL)
# [13] = individual animals, Dose 5 (40 μg/kg Dexmedetomidine SL)
# [14] = individual animals, Dose 6 (1.5 μg/kg Dexmedetomidine I.V.)
# [15] = parenteral dexmedetomidine (1.5 μg/kg, p.o.), compared to vehicle control
# [16] = Table 2, Zolpidem (30 mg/kg, p.o.)
# [17] = group mean, Zolpidem (30 mg/kg), orally
# [18] = individual animals, Zolpidem (30 mg/kg), orally
structure (smiles),measurement,setting,value
"Cc1cccc([C@H](C)c2cnc[nH]2)c1C [Dexmedetomidine, 5-[(1 S)-1-(2,3-dimethylphenyl)ethyl]-1 H-imidazole]",Latency to Sleep (Mean and SEM),[1],63.2
same,Number of Sleep Episodes (Mean and SEM),[1],2.33
same,Total Sleep Time (Mean and SEM),[1],100.7
same,Latency to Sleep (Mean and SEM),"Table 2, Dose 2 (10 μg/kg, SL)",21.0
same,Number of Sleep Episodes (Mean and SEM),"Table 2, Dose 2 (10 μg/kg, SL)",4.50
same,Total Sleep Time (Mean and SEM),"Table 2, Dose 2 (10 μg/kg, SL)",130.1
same,Latency to Sleep (Mean and SEM),"Table 2, Dose 3 (20 μg/kg, SL)",12.7
same,Number of Sleep Episodes (Mean and SEM),"Table 2, Dose 3 (20 μg/kg, SL)",4.00
same,Total Sleep Time (Mean and SEM),"Table 2, Dose 3 (20 μg/kg, SL)",150.2
same,Latency to Sleep (Mean and SEM),"Table 2, Dose 4 (30 μg/kg, SL)",13.2
same,Number of Sleep Episodes (Mean and SEM),"Table 2, Dose 4 (30 μg/kg, SL)",2.50
same,Total Sleep Time (Mean and SEM),"Table 2, Dose 4 (30 μg/kg, SL)",143.1
same,Latency to Sleep (Mean and SEM),"Table 2, Dose 5 (40 μg/kg, SL)",16.7
same,Number of Sleep Episodes (Mean and SEM),"Table 2, Dose 5 (40 μg/kg, SL)",2.67
same,Total Sleep Time (Mean and SEM),"Table 2, Dose 5 (40 μg/kg, SL)",169.7
same,Latency to Sleep (Mean and SEM),[2],25.4
same,Number of Sleep Episodes (Mean and SEM),[2],2.33
same,Total Sleep Time (Mean and SEM),[2],137
same,"Latency to Sleep (Time of sleep onset), result in words","dexmedetomidine dosed sublingually at 10, 20, 30 & 40 μg/kg, compared to vehicle control",significantly lowered; also recorded: significantly reduced
same,"Number of sleep episodes, result in words","dexmedetomidine dosed sublingually, from 10, 20, 30 & 40 μg/kg, compared to vehicle control",gradually decreased
same,Latency to Sleep,[3],63.17
same,Number of Sleep Episodes,[3],2.33
same,Total Sleep time Normalized to Vehicle*,[3],100.71
same,Total Sleep time,[3],47.67 min
same,Latency to Sleep,[4],21.00
same,Number of Sleep Episodes,[4],4.50
same,Total Sleep time Normalized to Vehicle*,[4],130.13
same,Total Sleep time,[4],103.67 min
same,Latency to Sleep,[5],12.67
same,Number of Sleep Episodes,[5],4.00
same,Total Sleep time Normalized to Vehicle*,[5],150.21
same,Total Sleep time,[5],119.67 min
same,Latency to Sleep,[6],13.17
same,Number of Sleep Episodes,[6],2.50
same,Total Sleep time Normalized to Vehicle*,[6],143.10
same,Total Sleep time,[6],114.00 min
same,Latency to Sleep,[7],16.67
same,Number of Sleep Episodes,[7],2.67
same,Total Sleep time Normalized to Vehicle*,[7],169.67
same,Total Sleep time,[7],135.17 min
same,Latency to Sleep,[8],25.40
same,Number of Sleep Episodes,[8],2.33
same,Total Sleep time Normalized to Vehicle*,[8],136.98
same,Total Sleep time,[8],64.83 min
same,Latency to Sleep,[9],97 and 101 and 87 and 94 and 0 (2×)
same,Number of Sleep Episodes,[9],2 (2×) and 5 (2×) and 0 (2×)
same,Total Sleep time Normalized to Vehicle*,[9],184 and 203 and 125 and 93 and 0 (2×)
same,Total Sleep time,[9],87 min and 96 min and 59 min and 44 min and 0 min (2×)
same,Latency to Sleep,[10],18 (2×) and 29 and 21 and 24 and 16
same,Number of Sleep Episodes,[10],5 (4×) and 4 and 3
same,Total Sleep time Normalized to Vehicle*,[10],128 and 102 and 108 and 141 and 152 and 151
same,Total Sleep time,[10],102 min and 81 min and 86 min and 112 min and 121 min and 120 min
same,Latency to Sleep,[11],15 (2×) and 12 and 13 and 10 and 11
same,Number of Sleep Episodes,[11],5 and 3 and 4 (4×)
same,Total Sleep time Normalized to Vehicle*,[11],133 and 174 and 143 and 142 and 181 and 128
same,Total Sleep time,[11],106 min and 139 min and 114 min and 113 min and 144 min and 102 min
same,Latency to Sleep,[12],11 (2×) and 23 and 8 and 10 and 16
same,Number of Sleep Episodes,[12],4 and 2 (4×) and 3
same,Total Sleep time Normalized to Vehicle*,[12],162 and 127 and 158 (2×) and 136 and 118
same,Total Sleep time,[12],129 min and 101 min and 126 min (2×) and 108 min and 94 min
same,Latency to Sleep,[13],16 (2×) and 17 and 18 and 13 and 20
same,Number of Sleep Episodes,[13],2 (3×) and 4 and 3 (2×)
same,Total Sleep time Normalized to Vehicle*,[13],181 and 134 and 186 and 190 and 159 and 168
same,Total Sleep time,[13],144 min and 107 min and 148 min and 151 min and 127 min and 134 min
same,Latency to Sleep,[14],18 and 27 and 26 and 24 and 85 and 32
same,Number of Sleep Episodes,[14],3 (3×) and 1 and 2 (2×)
same,Total Sleep time Normalized to Vehicle*,[14],180 and 184 and 95 and 129 and 177 and 57
same,Total Sleep time,[14],85 min and 87 min and 45 min and 61 min and 84 min and 27 min
same,"Latency to Sleep (Time of sleep onset), result in words",[15],significantly lowered
same,"Number of sleep episodes, result in words",[15],gradually decreased
same,"Total sleep time, result in words",sublingual dexmedetomidine at dose range of 10 to 40 μg/kg,no significant increase; also recorded: not significantly affecting
same,"Total Sleep Time (total duration of sleep in 180 min.), result in words","sublingual dexmedetomidine, 40 μg/kg",significant increase
Cc1ccc(-c2nc3ccc(C)cn3c2CC(=O)N(C)C)cc1 [Zolpidem],Latency to Sleep (Mean and SEM),[16],27.0
same,Number of Sleep Episodes (Mean and SEM),[16],3.83
same,Total sleep time normalized to vehicle,[16],183.8
same,"Total Sleep Time (total duration of sleep in 180 min.), result in words","Zolpidem at the standard dose, compared to NC and Vehicle control",significant increase
same,"Latency to Sleep (Time of sleep onset), result in words","Zolpidem, compared to normal and vehicle control",reduction in the sleep latency
same,Latency to Sleep,[17],27.00
same,Number of Sleep Episodes,[17],3.83
same,Total Sleep time Normalized to Vehicle*,[17],183.82
same,Total Sleep time,[17],87.00 min
same,Latency to Sleep,[18],24 (2×) and 28 and 26 and 23 and 37
same,Number of Sleep Episodes,[18],3 (3×) and 6 and 4 (2×)
same,Total Sleep time Normalized to Vehicle*,[18],247 and 260 and 167 and 205 and 114 and 110
same,Total Sleep time,[18],117 min and 123 min and 79 min and 97 min and 54 min and 52 min
